Assay results taken from ChEMBL document CHEMBL5385872, “Design and syntheses of a bimolecular STING agonist based on the covalent STING antagonist” (Eur J Med Chem, 2023).
The source made the active and inactive calls. The rule behind the calls is not given here.

How the values were obtained:
RAW264.7 [1] = test: Synergistic increase in […]-induced TBK1 phosphorylation in mouse RAW264.7 cells by Western blot analysis; assay type: functional, cell-based
[2] = molecular target: Stimulator of interferon genes protein (Homo sapiens) (UniProt Q86WV6); test: Induction of STING-dependent gene expression in human HT-1080 cells assessed as increase in […] induced IFNbeta mRNA expression at 20 uM incubated for 8 hrs by qRT-PCR analysis; assay type: cell-based; conditions: filed as agonist
[3] = molecular target: T1, Stimulator of interferon genes protein (Mus musculus) (UniProt Q3TBT3); test: Agonist activity at STING in mouse embryonic fibroblast cells assessed as increase in TBK1 phosphorylation at 2.5 to 20 uM measured after 5 hrs by Western blot analysis; assay type: cell-based; conditions: MEF, filed as agonist, dose 2.5-20 µM
T1 sequence (whole entry): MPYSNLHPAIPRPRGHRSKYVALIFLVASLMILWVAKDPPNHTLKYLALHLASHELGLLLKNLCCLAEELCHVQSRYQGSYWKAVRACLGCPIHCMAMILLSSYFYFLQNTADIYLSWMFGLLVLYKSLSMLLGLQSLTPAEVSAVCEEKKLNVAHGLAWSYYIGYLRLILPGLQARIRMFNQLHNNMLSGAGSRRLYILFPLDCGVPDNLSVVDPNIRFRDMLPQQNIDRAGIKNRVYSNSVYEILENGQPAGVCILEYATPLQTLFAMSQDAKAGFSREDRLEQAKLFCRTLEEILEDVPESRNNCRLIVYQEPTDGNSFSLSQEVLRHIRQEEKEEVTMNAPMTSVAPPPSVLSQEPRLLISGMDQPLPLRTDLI

[4] = Antiviral activity against rhesus rotavirus assessed as inhibition of replication by qRT-PCR analysis; assay type: functional, Simian rotavirus A strain RRV
[5] = tested on: Stimulator of interferon genes protein (Homo sapiens), Q86WV6 [C148A]; test: Induction of STING C148A mutant (unknown origin) mediated TBK1 phosphorylation in human HeLa cells transfected with STING C148A mutant at 10 uM measured after 5 hr by Western blot analysis; assay type: cell-based; conditions: filed as agonist
RAW264.7 [6] = test: Cytotoxicity against mouse RAW264.7 cells assessed as cell viability measured after 72 hrs by MTT assay; assay type: functional, cell-based; conditions: RAW264.7, 72 h
Mus musculus [7] = test: Induction of immune-activation effect in wild type female BALB/c mouse assessed as increase in serum TNFalpha level at 15 to 30 mg/kg, ip measured after 24 to 48 hrs by ELISA relative to control; assay type: functional, organism-based; conditions: dose 15-30 mg/kg, time 24-48 hrs
[8] = molecular target: Stimulator of interferon genes protein (Homo sapiens) (UniProt Q86WV6); test: Agonist activity at STING in human HT-1080 cells assessed as increase in ADU-S100-induced TBK1 phosphorylation at 2.5 to 20 uM measured after 5 hrs by Western blot analysis; assay type: cell-based; conditions: filed as agonist, dose 2.5-20 µM
[9] = molecular target: T1, Stimulator of interferon genes protein (Mus musculus); test: Induction of STING dimerization in mouse BMDM cells at 2.5 to 20 uM measured after 5 hrs by Western blot analysis; assay type: cell-based; conditions: filed as agonist, dose 2.5-20 µM
[10] = molecular target: Stimulator of interferon genes protein (Homo sapiens) (UniProt Q86WV6); test: Induction of STING dimerization in human HT-1080 cells at 2.5 to 20 uM measured after 5 hrs by Western blot analysis; assay type: cell-based; conditions: filed as agonist, dose 2.5-20 µM
[11] = molecular target: Stimulator of interferon genes protein (Homo sapiens) (UniProt Q86WV6); test: Induction of STING-dependent gene expression in human THP1 cells assessed as TNFalpha mRNA expression at 2.5 to 20 uM incubated for 8 hrs by qRT-PCR analysis; assay type: cell-based; conditions: THP-1, filed as agonist, dose 2.5-20 µM
[12] = molecular target: Stimulator of interferon genes protein (Homo sapiens) (UniProt Q86WV6); test: Induction of STING-dependent gene expression in human THP1 cells assessed as IFNbeta mRNA expression at 2.5 to 20 uM incubated for 8 hrs by qRT-PCR analysis; assay type: cell-based; conditions: THP-1, filed as agonist, dose 2.5-20 µM
HT-1080 [13] = test: Cytotoxicity against human HT-1080 cells assessed as cell viability measured after 72 hrs by MTT assay; assay type: functional, cell-based; conditions: HT-1080, 72 h
[14] = molecular target: Stimulator of interferon genes protein (Homo sapiens) (UniProt Q86WV6); test: Agonist activity at STING in human HT-1080 cells assessed as increase in TBK1 phosphorylation at 2.5 to 20 uM measured after 5 hrs by Western blot analysis; assay type: cell-based; conditions: filed as agonist, dose 2.5-20 µM
[15] = Antiviral activity against HSV infected in human HT-1080 cells assessed as reduction viral RNA expression pretreated for 1 hr followed by infection measured after 18 hrs by qRT-PCR analysis; assay type: functional, cell-based; conditions: Herpes simplex virus unknown type
[16] = molecular target: Stimulator of interferon genes protein (Homo sapiens) (UniProt Q86WV6); test: Induction of oligomerization of STING in human HeLa cells transfected with wild type STING (unknown origin) assessed as intracellular puncta formation at 10 uM measured after 1 hr by DAPI staining based immunofluorescence microscopy; assay type: cell-based; conditions: filed as agonist
[17] = molecular target: Stimulator of interferon genes protein (Homo sapiens) (UniProt Q86WV6); test: Induction of STING-dependent gene expression in human HT-1080 cells assessed as IFNbeta mRNA expression at 20 uM incubated for 8 hrs by qRT-PCR analysis; assay type: cell-based; conditions: filed as agonist
HT-1080 [18] = test: Effect on TBK1 phosphorylation in STING - knockout human HT1080 cells at 20 uM measured after 5 hrs by Western blot analysis; assay type: functional, cell-based
[19] = molecular target: Stimulator of interferon genes protein (Homo sapiens) (UniProt Q86WV6); test: Agonist activity at STING in human HT-1080 cells assessed as increase in diABZI-induced TBK1 phosphorylation at 2.5 to 20 uM measured after 5 hrs by Western blot analysis; assay type: cell-based; conditions: filed as agonist, dose 2.5-20 µM
[20] = molecular target: Stimulator of interferon genes protein (Homo sapiens) (UniProt Q86WV6); test: Induction of STING dimerization in human THP1 cells at 2.5 to 20 uM measured after 5 hrs by Western blot analysis; assay type: cell-based; conditions: THP-1, filed as agonist, dose 2.5-20 µM
[21] = molecular target: Stimulator of interferon genes protein (Homo sapiens) (UniProt Q86WV6); test: Induction of wild type STING mediated TBK1 phosphorylation in human HeLa cells transfected with wild type STING at 10 uM measured after 5 hr by Western blot analysis; assay type: cell-based; conditions: filed as agonist
[22] = tested on: Stimulator of interferon genes protein (Homo sapiens), Q86WV6 [C91S]; test: Induction of oligomerization of STING C91S (unknown origin) mutant in human HeLa cells transfected with wild type STING assessed as intracellular puncta formation at 10 uM measured after 1 hr by DAPI staining based immunofluorescence microscopy; assay type: cell-based; conditions: filed as agonist
[23] = molecular target: T1, Stimulator of interferon genes protein (Mus musculus); test: Agonist activity at STING in mouse BMDM cells assessed as increase in TBK1 phosphorylation at 2.5 to 20 uM measured after 5 hrs by Western blot analysis; assay type: cell-based; conditions: filed as agonist, dose 2.5-20 µM
HT-1080 [24] = test: Synergistic increase in HSV infection-induced TBK1 phosphorylation in human HT-1080 cells by Western blot analysis; assay type: functional, cell-based
BMDM = test: Effect on STING level in mouse BMDM cells at 2.5 to 20 uM incubated for 8 hrs by Western blot analysis; assay type: functional, cell-based; conditions: dose 2.5-20 µM
RAW264.7 [25] = test: Synergistic increase in HSV infection-induced TBK1 phosphorylation in mouse RAW264.7 cells by Western blot analysis; assay type: functional, cell-based
SARS-CoV-2 = test: Antiviral activity against SARS-CoV-2 assessed as inhibition of replication by qRT-PCR analysis; assay type: functional, organism-based; conditions: Severe acute respiratory syndrome coronavirus 2
Vero = test: Cytotoxicity against interferon production defective African green monkey Vero cells assessed as cell viability measured after 72 hrs by MTT assay; assay type: functional, cell-based; conditions: Chlorocebus sabaeus
[26] = molecular target: Stimulator of interferon genes protein (Homo sapiens) (UniProt Q86WV6); test: Induction of wild type STING dimerization in human HeLa cells transfected with wild type STING at 10 uM measured after 5 hr by Western blot analysis; assay type: cell-based; conditions: filed as agonist
[27] = tested on: Stimulator of interferon genes protein (Homo sapiens), Q86WV6 [V113Q,G114Q,P115Q]; test: Induction of STING V113Q/G114Q/P115Q mutant (unknown origin) mediated TBK1 phosphorylation in human HeLa cells transfected with STING C148A mutant at 10 uM measured after 5 hr by Western blot analysis; assay type: cell-based; conditions: filed as agonist
[28] = molecular target: Stimulator of interferon genes protein (Homo sapiens) (UniProt Q86WV6); test: Induction of STING-dependent gene expression in human HT-1080 cells assessed as increase in diABZI induced IFNbeta mRNA expression at 20 uM incubated for 8 hrs by qRT-PCR analysis; assay type: cell-based; conditions: filed as agonist
THP-1 = test: Effect on STING level in human THP1 cells at 2.5 to 20 uM incubated for 8 hrs by Western blot analysis; assay type: functional, cell-based; conditions: dose 2.5-20 µM
HT-1080 [29] = test: Synergistic increase in […]-induced TBK1 phosphorylation in human HT-1080 cells by Western blot analysis; assay type: functional, cell-based
Mus musculus [30] = test: Induction of immune-activation effect in wild type female BALB/c mouse assessed as increase in serum IFNbeta level at 15 to 30 mg/kg, ip measured after 24 to 48 hrs by ELISA relative to control; assay type: functional, organism-based; conditions: dose 15-30 mg/kg, time 24-48 hrs
[31] = tested on: Herpes simplex virus unknown type; test: Antiviral activity against HSV infected in human HT-1080 cells assessed as reduction viral protein ICP0 expression at 2.5 to 20 uM pretreated for 1 hr followed by infection measured after 18 hrs by Western blot analysis; assay type: functional, cell-based; conditions: dose 2.5-20 µM, time 19.0 hrs
[32] = tested on: Stimulator of interferon genes protein (Homo sapiens), Q86WV6 [C88S,C91S]; test: Induction of oligomerization of STING C88S/C91S (unknown origin) double mutant in human HeLa cells transfected with wild type STING assessed as intracellular puncta formation at 10 uM measured after 1 hr by DAPI staining based immunofluorescence microscopy; assay type: cell-based; conditions: filed as agonist
[33] = molecular target: Stimulator of interferon genes protein (Homo sapiens) (UniProt Q86WV6); test: Induction of STING-dependent gene expression in human HT-1080 cells assessed as TNFalpha mRNA expression at 20 uM incubated for 8 hrs by qRT-PCR analysis; assay type: cell-based; conditions: filed as agonist
[34] = molecular target: T1, Stimulator of interferon genes protein (Mus musculus); test: Induction of STING dimerization in mouse embryonic fibroblast cells at 2.5 to 20 uM measured after 5 hrs by Western blot analysis; assay type: cell-based; conditions: MEF, filed as agonist, dose 2.5-20 µM
HEK-293T = test: Cytotoxicity against STING-deficient human 293T cells assessed as cell viability measured after 72 hrs by MTT assay; assay type: functional, cell-based
[35] = molecular target: Stimulator of interferon genes protein (Homo sapiens) (UniProt Q86WV6); test: Agonist activity at STING in human THP1 cells assessed as increase in TBK1 phosphorylation at 2.5 to 20 uM measured after 5 hrs by Western blot analysis; assay type: cell-based; conditions: THP-1, filed as agonist, dose 2.5-20 µM
[36] = molecular target: Stimulator of interferon genes protein (Homo sapiens) (UniProt Q86WV6); test: Induction of STING-dependent gene expression in human HT-1080 cells assessed as increase in ADU-S100 induced IFNbeta mRNA expression at 20 uM incubated for 8 hrs by qRT-PCR analysis; assay type: cell-based; conditions: filed as agonist
[37] = molecular target: Stimulator of interferon genes protein (Homo sapiens) (UniProt Q86WV6); test: Agonist activity at STING in human HT-1080 cells assessed as increase in TBK1 phosphorylation at 20 uM measured after 5 hrs by Western blot analysis; assay type: cell-based; conditions: filed as agonist

Sequence of Stimulator of interferon genes protein (Homo sapiens) (Q86WV6 whole entry): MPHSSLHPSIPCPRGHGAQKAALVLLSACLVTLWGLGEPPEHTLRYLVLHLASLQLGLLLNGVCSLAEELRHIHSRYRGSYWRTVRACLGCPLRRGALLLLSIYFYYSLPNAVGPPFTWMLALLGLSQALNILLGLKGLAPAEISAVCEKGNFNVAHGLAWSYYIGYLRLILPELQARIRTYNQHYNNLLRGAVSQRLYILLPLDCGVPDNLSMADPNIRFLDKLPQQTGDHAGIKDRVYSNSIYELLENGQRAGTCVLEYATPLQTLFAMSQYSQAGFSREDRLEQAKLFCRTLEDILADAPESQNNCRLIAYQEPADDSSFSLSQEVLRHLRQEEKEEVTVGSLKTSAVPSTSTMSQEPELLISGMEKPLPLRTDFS
Sequence of Stimulator of interferon genes protein (Homo sapiens), Q86WV6 [C91S] (Q86WV6 whole entry C91S): as the sequence (Q86WV6 whole entry) above, with C91S counted along it
Sequence of Stimulator of interferon genes protein (Homo sapiens), Q86WV6 [V113Q,G114Q,P115Q] (Q86WV6 whole entry V113Q/G114Q/P115Q): as the sequence (Q86WV6 whole entry) above, with V113Q, G114Q, P115Q counted along it
Sequence of Stimulator of interferon genes protein (Homo sapiens), Q86WV6 [C88S,C91S] (Q86WV6 whole entry C88S/C91S): as the sequence (Q86WV6 whole entry) above, with C88S, C91S counted along it
Sequence of Stimulator of interferon genes protein (Homo sapiens), Q86WV6 [C148A] (Q86WV6 whole entry C148A): as the sequence (Q86WV6 whole entry) above, with C148A counted along it

O=C(NCCCCCNC(=O)c1ccc([N+](=O)[O-])o1)c1ccc([N+](=O)[O-])o1
Activity (RAW264.7 [1]): Active
Activity [2]: Active
Activity [3]: Active
EC50 [4]: 6.8 µM
Activity [5]: Active
IC50 (RAW264.7 [6]): 8.69 µM
Activity (Mus musculus [7]): Active
Activity [8]: Active
Activity [9]: Active
Activity [10]: Active
Activity [11]: Active
Activity [12]: Active
IC50 (HT-1080 [13]): 9.31 µM
Activity [14]: Active
EC50 [15]: 6.15 µM
Activity [16]: Active
Activity [17]: Active
Activity (HT-1080 [18]): inactive
Activity [19]: Active
Activity [20]: Active
Activity [21]: Active
Activity [22]: Active
Activity [23]: Active
Activity (HT-1080 [24]): inactive
Activity (BMDM): inactive
Activity (RAW264.7 [25]): Active
EC50 (SARS-CoV-2): 10.7 µM
IC50 (Vero): 28.4 µM
Activity [26]: Active
Activity [27]: Active
Activity [28]: Active
Activity (THP-1): inactive
Activity (HT-1080 [29]): Active
Activity (Mus musculus [30]): Active
Activity [31]: Active
Activity [32]: Active
Activity [33]: Active
Activity [34]: Active
IC50 (HEK-293T): 22.4 µM
Activity [35]: Active
Activity [36]: Active
Activity [37]: Active
